Measurements published in patent publication US10906910B2, “Substituted bicyclic pyrimidine compounds with tubulin and multiple receptor inhibition” (Duquesne University of the Holy Spirit, priority 2014, dated 2021).

Experiments:
OVCAR-3 = experiment: NCI 60 panel, Ovarian cancer OVCAR-3; format: cell-based; conditions: Homo sapiens, read-out: Tumor cell inhibitory activity (NCI) GI50
HOP-62 = experiment: NCI 60 panel, NSCLC HOP-62; format: cell-based; conditions: Homo sapiens, read-out: Tumor cell inhibitory activity (NCI) GI50
U251 = experiment: NCI 60 panel, CNS Cancer U251; format: cell-based; conditions: Homo sapiens, U-251, read-out: Tumor cell inhibitory activity (NCI) GI50
NCI-H322M = experiment: NCI 60 panel, NSCLC NCI-H322M; format: cell-based; conditions: Homo sapiens, read-out: Tumor cell inhibitory activity (NCI) GI50
SR = experiment: NCI 60 panel, Leukemia SR; format: cell-based; conditions: Homo sapiens, read-out: Tumor cell inhibitory activity (NCI) GI50
NCI-H522 = experiment: NCI 60 panel, NSCLC NCI-H522; format: cell-based; conditions: Homo sapiens, read-out: Tumor cell inhibitory activity (NCI) GI50
SK-MEL-2 = experiment: NCI 60 panel, Melanoma SK-MEL-2; format: cell-based; conditions: Homo sapiens, read-out: Tumor cell inhibitory activity (NCI) GI50
NCI-H460 = experiment: NCI 60 panel, NSCLC NCI-H460; format: cell-based; conditions: Homo sapiens, read-out: Tumor cell inhibitory activity (NCI) GI50
COLO 205 = experiment: NCI 60 panel, Colon Cancer COLO 205; format: cell-based; conditions: Homo sapiens, read-out: Tumor cell inhibitory activity (NCI) GI50
786-0 = experiment: NCI 60 panel, Renal Cancer 786-0; format: cell-based; conditions: Homo sapiens, read-out: Tumor cell inhibitory activity (NCI) GI50
SK-MEL-28 = experiment: NCI 60 panel, Melanoma SK-MEL-28; format: cell-based; conditions: Homo sapiens, read-out: Tumor cell inhibitory activity (NCI) GI50
[1] = system: blood vessel formation in the chicken chorioallantoic membrane (CAM); experiment: chicken chorioallantoic membrane (CAM) antiangiogenic activity assay; format: in vivo; conditions: Gallus gallus
SNB-75 = experiment: NCI 60 panel, CNS Cancer SNB-75; format: cell-based; conditions: Homo sapiens, read-out: Tumor cell inhibitory activity (NCI) GI50
CAKI-1 = experiment: NCI 60 panel, Renal Cancer CAKI-1; format: cell-based; conditions: Homo sapiens, read-out: Tumor cell inhibitory activity (NCI) GI50

Structure (SMILES): COc1ccc(N(C)c2nc(C)nc3c(Cc4ccccc4)cn(C)c23)cc1 [Compound 4, 7-Benzyl-N-(4-methoxyphenyl)-N,2,5-trimethyl-5H-pyrrolo[3,2-d]pyrimidin-4-amine]
- GI50 (OVCAR-3): 35.2 nM
- GI50 (HOP-62): 47.8 nM
- GI50 (U251): 44.3 nM
- GI50 (NCI-H322M): 73.6 nM
- GI50 (SR): 33.8 nM
- GI50 (NCI-H522): 23.9 nM
- GI50 (SK-MEL-2): 28.6 nM
- GI50 (NCI-H460): 38.7 nM
- GI50 (COLO 205): 26.3 nM
- GI50 (786-0): 93.2 nM
- GI50 (SK-MEL-28): 48.7 nM
- IC50 [1]: 2200 ± 400 nM
- GI50 (SNB-75): 27.8 nM
- GI50 (CAKI-1): 56.6 nM
